{
  "source": "patent US12240857B2",
  "about": "(priority 2017, dated 2025)",
  "key": {"[1]": {"system": "BDBV mucin-domain-deleted glycoprotein pseudotyped VSV", "assay": "microbe, parasite or virus in culture", "format": "cell-based, Bundibugyo ebolavirus", "details": "Vesicular stomatitis virus, Vero, read-out: EC50 BDBV"}, "in vitro": {"assay": "in vitro", "details": "African green monkey, CC50"}, "[2]": {"system": "EBOV mucin-domain-deleted glycoprotein pseudotyped VSV", "assay": "microbe, parasite or virus in culture", "format": "cell-based, Zaire ebolavirus", "details": "Zaire ebolavirus, Vero, read-out: EC50 EBOV"}},
  "note": "Read-outs that look alike come from different tables or passages of the source.",
  "data": [
    {"smiles": "CC12CC3CC(C(=O)Nc4ccncc4)(C1)CC(c1ccccc1)(C3)C2", "note": "(stereo not drawn) [Example A201, 3-methyl-5-phenyl-N-(pyridin-4-yl)adamantane-1-carboxamide]", "values": [
      {"measurement": "EC50", "setting": "[1]", "result": "> 1000", "unit": "nM"},
      {"measurement": "CC50", "setting": "in vitro", "result": 16400, "unit": "nM"},
      {"measurement": "EC50", "setting": "[2]", "result": 1100, "unit": "nM"}
    ]},
    {"smiles": "CN1CCN(C(=O)C23CC4CC(C2)CC(c2ccccc2)(C4)C3)CC1", "note": "[Example A25]", "values": [
      {"measurement": "EC50", "setting": "[1]", "result": 190, "unit": "nM"},
      {"measurement": "CC50", "setting": "in vitro", "result": "> 10000", "unit": "nM"},
      {"measurement": "EC50", "setting": "[2]", "result": 450, "unit": "nM"}
    ]},
    {"smiles": "N[C@H]1CC[C@@H](NC(=O)CC2(c3ccccc3)C3CC4CC(C3)CC2C4)CC1", "note": "(stereo partly drawn) [Example A98]", "values": [
      {"measurement": "EC50", "setting": "[1]", "result": 580, "unit": "nM"},
      {"measurement": "CC50", "setting": "in vitro", "result": 11300, "unit": "nM"},
      {"measurement": "EC50", "setting": "[2]", "result": 1160, "unit": "nM"}
    ]},
    {"smiles": "CC(C)(C)NCC(O)COCCC12CC3CC(CC(C3)C1)C2", "note": "(stereo not drawn) [Example D13, {3-[2-(adamantan-1-yl)ethoxy]-2-hydroxypropyl}(tert-butyl)amine]", "values": [
      {"measurement": "EC50", "setting": "[1]; 24 h", "result": 670, "unit": "nM"},
      {"measurement": "CC50", "setting": "in vitro", "result": "> 10000", "unit": "nM"},
      {"measurement": "EC50", "setting": "[2]; 24 h", "result": 630, "unit": "nM"}
    ]},
    {"smiles": "O=C(CC12CC3CC(C1)CC(c1ccccc1)(C3)C2)NC1CCNCC1", "note": "[Example A70]", "values": [
      {"measurement": "EC50", "setting": "[1]", "result": 190, "unit": "nM"},
      {"measurement": "CC50", "setting": "in vitro", "result": "> 50000", "unit": "nM"},
      {"measurement": "EC50", "setting": "[2]", "result": 490, "unit": "nM"}
    ]},
    {"smiles": "C[C@H]1C[C@@H](NC(=O)C23CC4CC(C)(C2)CC(c2ccccc2)(C4)C3)CCN1", "note": "(stereo partly drawn) [Example A110]", "values": [
      {"measurement": "EC50", "setting": "[1]", "result": 190, "unit": "nM"},
      {"measurement": "CC50", "setting": "in vitro", "result": 17500, "unit": "nM"},
      {"measurement": "EC50", "setting": "[2]", "result": 21, "unit": "nM"}
    ]},
    {"smiles": "CC12CC3CC(C(=O)N[C@@H]4CCNC[C@H]4F)(C1)CC(c1ccccc1)(C3)C2", "note": "(stereo partly drawn) [Example A108]", "values": [
      {"measurement": "EC50", "setting": "[1]", "result": 210, "unit": "nM"},
      {"measurement": "CC50", "setting": "in vitro", "result": 16500, "unit": "nM"},
      {"measurement": "EC50", "setting": "[2]", "result": 25, "unit": "nM"}
    ]},
    {"smiles": "CC12CC3CC(C(=O)N[C@@H]4CN5CCC4CC5)(C1)CC(c1ccccc1)(C3)C2", "note": "(stereo partly drawn) [Example A44]", "values": [
      {"measurement": "EC50", "setting": "[1]", "result": 190, "unit": "nM"},
      {"measurement": "CC50", "setting": "in vitro", "result": 11000, "unit": "nM"},
      {"measurement": "EC50", "setting": "[2]", "result": 90, "unit": "nM"}
    ]},
    {"smiles": "OC(CCOc1ccc(C23CC4CC(CC(C4)C2)C3)cc1)CN1CCCCC1", "note": "(stereo not drawn) [Example C8, 4-(4-(adamantan-1-yl)phenoxy)-1-(piperidin-1-yl)butan-2-ol]", "values": [
      {"measurement": "EC50", "setting": "[1]", "result": 290, "unit": "nM"},
      {"measurement": "CC50", "setting": "in vitro", "result": 1300, "unit": "nM"},
      {"measurement": "EC50", "setting": "[2]", "result": 140, "unit": "nM"}
    ]},
    {"smiles": "O=C(N1CC2CC1CN2Cc1ccccc1)C12CC3CC(C1)CC(c1ccccc1)(C3)C2", "note": "(stereo not drawn) [Example A20]", "values": [
      {"measurement": "EC50", "setting": "[1]", "result": 410, "unit": "nM"},
      {"measurement": "CC50", "setting": "in vitro", "result": 10600, "unit": "nM"},
      {"measurement": "EC50", "setting": "[2]", "result": 490, "unit": "nM"}
    ]},
    {"smiles": "O=C(N1CCCNCC1)C12CC3CC(C1)CC(c1ccccc1)(C3)C2", "note": "[Example A66]", "values": [
      {"measurement": "EC50", "setting": "[1]", "result": 100, "unit": "nM"},
      {"measurement": "CC50", "setting": "in vitro", "result": "> 10000", "unit": "nM"},
      {"measurement": "EC50", "setting": "[2]", "result": 160, "unit": "nM"}
    ]},
    {"smiles": "CC1CCN(C[C@@H](O)COCC23CC4CC(C2)CC(c2ccccc2)(C4)C3)CC1", "note": "[Example C11, (2R)-1-(4-methylpiperidin-1-yl)-3-[(3-phenyladamantan-1-yl)methoxy]propan-2-ol]", "values": [
      {"measurement": "EC50", "setting": "[1]", "result": 110, "unit": "nM"},
      {"measurement": "CC50", "setting": "in vitro", "result": 3600, "unit": "nM"},
      {"measurement": "EC50", "setting": "[2]", "result": 180, "unit": "nM"}
    ]},
    {"smiles": "O=C(NC1CCNCC1)c1ccc(NCC23CC4CC(C2)CC(c2ccccc2)(C4)C3)nc1", "note": "[Example C14, 6-{[(3-phenyladamantan-1-yl)methyl]amino}-N-(piperidin-4-yl)pyridine-3-carboxamide]", "values": [
      {"measurement": "EC50", "setting": "[1]", "result": 1000, "unit": "nM"},
      {"measurement": "CC50", "setting": "in vitro", "result": 3900, "unit": "nM"},
      {"measurement": "EC50", "setting": "[2]", "result": "> 1000", "unit": "nM"}
    ]},
    {"smiles": "CC12CC3CC(CNC4CCNCC4)(C1)CC(c1ccccc1)(C3)C2", "note": "(stereo not drawn) [Example C3, N-((3-methyl-5-phenyladamantan-1-yl)methyl)piperidin-4-amine]", "values": [
      {"measurement": "EC50", "setting": "[1]", "result": 210, "unit": "nM"},
      {"measurement": "CC50", "setting": "in vitro", "result": 1800, "unit": "nM"},
      {"measurement": "EC50", "setting": "[2]", "result": 234, "unit": "nM"}
    ]},
    {"smiles": "CC12CC3CC(C(=O)N[C@H]4CC[C@H](CN)CC4)(C1)CC(c1ccccc1)(C3)C2", "note": "(stereo partly drawn) [Example A96]", "values": [
      {"measurement": "EC50", "setting": "[1]", "result": 80, "unit": "nM"},
      {"measurement": "CC50", "setting": "in vitro", "result": 11600, "unit": "nM"},
      {"measurement": "EC50", "setting": "[2]", "result": 30, "unit": "nM"}
    ]},
    {"smiles": "O=C(NC12CC3CC(C1)CC(c1ccccc1)(C3)C2)C1CCNCC1", "note": "[Example E3, N-(3-phenyladamantan-1-yl)piperidine-4-carboxamide]", "values": [
      {"measurement": "EC50", "setting": "[1]", "result": 270, "unit": "nM"},
      {"measurement": "CC50", "setting": "in vitro", "result": 36300, "unit": "nM"},
      {"measurement": "EC50", "setting": "[2]", "result": "> 1000", "unit": "nM"}
    ]},
    {"smiles": "COC(=O)c1ccc(COc2ccccc2CN2CCN(C(=O)CNC(=O)C34CC5CC(CC3C5)C4)CC2)cc1", "note": "[Example A5]", "values": [
      {"measurement": "EC50", "setting": "[1]", "result": 3900, "unit": "nM"},
      {"measurement": "CC50", "setting": "in vitro", "result": "> 3000", "unit": "nM"},
      {"measurement": "EC50", "setting": "[2]", "result": 1400, "unit": "nM"}
    ]},
    {"smiles": "O=C(NC1CN(Cc2ccccc2)C1)C12CC3CC(C1)CC(c1ccccc1)(C3)C2", "note": "[Example A36]", "values": [
      {"measurement": "EC50", "setting": "[1]", "result": 300, "unit": "nM"},
      {"measurement": "CC50", "setting": "in vitro", "result": 4300, "unit": "nM"},
      {"measurement": "EC50", "setting": "[2]", "result": 510, "unit": "nM"}
    ]},
    {"smiles": "CC1CCN(C[C@H](O)COc2ccc(C34CC5CC(C)(CC(C)(C5)C3)C4)cc2)CC1", "note": "[Example D40, (2S)-1-[4-(3,5-dimethyladamantan-1-yl)phenoxy]-3-(4-methylpiperidin-1-yl)propan-2-ol]", "values": [
      {"measurement": "EC50", "setting": "[1]; 24 h", "result": 460, "unit": "nM"},
      {"measurement": "CC50", "setting": "in vitro", "result": 2500, "unit": "nM"},
      {"measurement": "EC50", "setting": "[2]; 24 h", "result": 190, "unit": "nM"}
    ]}
  ]
}
